Measurements: patent US12371454B2, “Cyclic peptide compound having Kras inhibitory action” (priority 2019, dated 2025)
pIC50: −log10 of the molar value. Starred links: 1 amine or outer side, 2 acyl side, 3 side chain; linkers in the order of their positions; H or OH if unused. Positions of bridges follow the written chain, without caps; N, C: chain ends. Non-standard residues stand in square brackets, D forms with d. Residues, ends and D or L forms follow the SMILES beside them. *: point of attachment. hPhe(3,5-F2-4-CF3) = N[C@@H](CCc1cc(F)c(C(F)(F)F)c(F)c1)C(=O)O; hPhe(3-Cl-4-CF3) = N[C@@H](CCc1ccc(C(F)(F)F)c(Cl)c1)C(=O)O; NMePhe(4-CF3) = CN[C@@H](Cc1ccc(C(F)(F)F)cc1)C(=O)O; NMePhe(3,4-F2) = CN[C@@H](Cc1ccc(F)c(F)c1)C(=O)O; NMePhe(3-Br) = CN[C@@H](Cc1cccc(Br)c1)C(=O)O; NMePhe(4-Me) = CN[C@@H](Cc1ccc(C)cc1)C(=O)O; X11 = CN([C@@H](CCc1cccnc1)C(=O)[*:2])[*:1]; NMePhe(4-F) = CN[C@@H](Cc1ccc(F)cc1)C(=O)O; NMePhe(2-Me) = CN[C@@H](Cc1ccccc1C)C(=O)O; Abu(4,4,4-F3) = N[C@@H](CC(F)(F)F)C(=O)O; NMeGly(cPent) = CN[C@H](C(=O)O)C1CCCC1; NMeCha = CN[C@@H](CC1CCCCC1)C(=O)O; NMeChg = CN[C@H](C(=O)O)C1CCCCC1; NMeI = CC[C@H](C)[C@H](NC)C(=O)O; dNMeF = CN[C@H](Cc1ccccc1)C(=O)O; Gly(cPr) = N[C@H](C(=O)O)C1CC1; NMeD = CN[C@@H](CC(=O)O)C(=O)O; NMeL = CN[C@@H](CC(C)C)C(=O)O; NMeV = CN[C@H](C(=O)O)C(C)C; d(β3hA) = C[C@@H](N)CC(=O)O; NMeS = CN[C@@H](CO)C(=O)O; Morpholide = C1CN(*)CCO1; NMeA = CN[C@@H](C)C(=O)O; Piperidide = C1CCN(*)CC1; dNMeA = CN[C@H](C)C(=O)O; Ac5c = NC1(C(=O)O)CCCC1; Aze = O=C(O)[C@@H]1CCN1; Ac4c = NC1(C(=O)O)CCC1; Cyclopropyl = C1CC1*; Sar = CNCC(=O)O; Propyl = CCC*

Biological target: T1, Kras and SOS1 (biotin-tagged human Kras loaded with GDP, His-tagged human SOS1) (Homo sapiens, UniProt P01116, G12D)
T1 construct: made in house; host or cells: E. coli (stated for Kras only)
Experiment: Protein-protein interaction inhibition between Kras and SOS1 (KrasGl2D-SOS PPI) using AlphaScreen
Format: binding
Conditions: AlphaScreen; biotin-tagged human Kras loaded with GDP, His-tagged human SOS1; read-out: KRAS G12D-SOS PPI IC50
How it was run: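 AlphaScreen format: Ni donor beads capture His-SOS1, streptavidin acceptor beads capture biotinylated Kras (E. coli-expressed, GDP-loaded post-purification). Excite 680 nm, read 520-620 nm.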

T1 sequence (P01116 1-188 isoform P01116-2 G12D): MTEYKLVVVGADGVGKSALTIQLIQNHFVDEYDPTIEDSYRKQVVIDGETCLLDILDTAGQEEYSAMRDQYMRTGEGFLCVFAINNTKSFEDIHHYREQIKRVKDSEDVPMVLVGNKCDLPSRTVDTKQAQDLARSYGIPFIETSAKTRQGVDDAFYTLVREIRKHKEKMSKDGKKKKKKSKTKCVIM

SMILES	pIC50
CC[C@H](C)[C@@H]1NC(=O)[C@H](C)N(C)C(=O)C[C@@H](C(=O)N2CCCCC2)N(C)C(=O)[C@H](C(C)C)N(C)C(=O)C2(CCCC2)NC(=O)[C@@H]2CCCN2C(=O)[C@H](CCc2ccc(C(F)(F)F)c(Cl)c2)NC(=O)[C@@H](C)N(C)C(=O)[C@H](Cc2ccc(F)cc2)N(C)C(=O)[C@@H]2CCCN2C(=O)CN(C)C1=O [Compound 1853] ([NMeA]I[Sar]P[NMePhe(4-F)][dNMeA][hPhe(3-Cl-4-CF3)]P[Ac5c][NMeV][NMeD]-Piperidide; lactam N-11)	8.05
CCCOC[C@H]1C(=O)N(C)[C@H](C(=O)N2CCCCC2)CC(=O)N(C)[C@@H](CC(C)C)C(=O)N[C@@H]([C@@H](C)CC)C(=O)N(C)[C@@H](C)C(=O)N2CC[C@H]2C(=O)N(C)[C@@H](CC2CCCCC2)C(=O)N(C)CC(=O)N[C@@H](CCc2ccc(C(F)(F)F)c(Cl)c2)C(=O)N2CCC[C@H]2C(=O)NC2(CCCC2)C(=O)N1C [Compound 1855] ([NMeL]I[NMeA][Aze][NMeCha][Sar][hPhe(3-Cl-4-CF3)]P[Ac5c][NMeS](Propyl)[NMeD]-Piperidide; lactam N-11)	6.47
CC[C@H](C)[C@@H]1NC(=O)[C@H](CC(C)C)N(C)C(=O)C[C@@H](C)NC(=O)[C@H](C2CCCCC2)N(C)C(=O)C2(CCCC2)NC(=O)[C@@H]2CCCN2C(=O)[C@H](CCc2ccc(C(F)(F)F)c(Cl)c2)NC(=O)CN(C)C(=O)[C@H](Cc2ccc(C)cc2)N(C)C(=O)CN(C)C(=O)CN(C)C1=O [Compound 1856] (cyclo([Ac5c][NMeChg][d(β3hA)][NMeL]I[Sar][Sar][NMePhe(4-Me)][Sar][hPhe(3-Cl-4-CF3)]P))	8.27
CC[C@H](C)[C@@H]1NC(=O)[C@H](CC(C)C)N(C)C(=O)C[C@@H](C(=O)N2CCCCC2)N(C)C(=O)[C@H](COC2CC2)N(C)C(=O)C2(CCCC2)NC(=O)[C@@H]2CCCN2C(=O)[C@H](CCc2ccc(C(F)(F)F)c(Cl)c2)NC(=O)CN(C)C(=O)[C@H](CC2CCCCC2)N(C)C(=O)CN(C)C(=O)CN(C)C1=O [Compound 1857] ([NMeL]I[Sar][Sar][NMeCha][Sar][hPhe(3-Cl-4-CF3)]P[Ac5c][NMeS](Cyclopropyl)[NMeD]-Piperidide; lactam N-11)	7.72
CC[C@H](C)[C@@H]1NC(=O)[C@H](CC(C)C)N(C)C(=O)C[C@@H](C(=O)N(C)C)N(C)C(=O)[C@H]([C@@H](C)CC)N(C)C(=O)C2(CCCC2)NC(=O)[C@@H]2CCCN2C(=O)[C@H](CCc2ccc(C(F)(F)F)c(Cl)c2)NC(=O)CN(C)C(=O)[C@H](CC2CCCCC2)N(C)C(=O)[C@@H]2CCN2C(=O)[C@H](C)N(C)C1=O [Compound 1858] ([NMeL]I[NMeA][Aze][NMeCha][Sar][hPhe(3-Cl-4-CF3)]P[Ac5c][NMeI][NMeD]-NMe2; lactam N-11)	8.96
CC(C)C[C@H]1C(=O)N[C@@H](C2CC2)C(=O)N(C)CC(=O)N(C)CC(=O)N(C)[C@@H](CC2CCCCC2)C(=O)N(C)CC(=O)N[C@@H](CCc2ccc(C(F)(F)F)c(Cl)c2)C(=O)N2CCC[C@H]2C(=O)NC2(CCCC2)C(=O)N(C)[C@@H](C2CCCCC2)C(=O)N(C)[C@H](C(=O)N2CCCCC2)CC(=O)N1C [Compound 1862] ([NMeL][Gly(cPr)][Sar][Sar][NMeCha][Sar][hPhe(3-Cl-4-CF3)]P[Ac5c][NMeChg][NMeD]-Piperidide; lactam N-11)	8.70
CC(C)C[C@H]1C(=O)N[C@@H](CC(F)(F)F)C(=O)N(C)[C@@H](C)C(=O)N2CC[C@H]2C(=O)N(C)[C@@H](CC2CCCCC2)C(=O)N(C)CC(=O)N[C@@H](CCc2ccc(C(F)(F)F)c(Cl)c2)C(=O)N2CCC[C@H]2C(=O)NC2(CCCC2)C(=O)N(C)[C@@H](C(C)C)C(=O)N(C)[C@H](C(=O)N2CCCCC2)CC(=O)N1C [Compound 1864] ([NMeL][Abu(4,4,4-F3)][NMeA][Aze][NMeCha][Sar][hPhe(3-Cl-4-CF3)]P[Ac5c][NMeV][NMeD]-Piperidide; lactam N-11)	7.32
CC[C@H](C)[C@@H]1NC(=O)[C@H](CC(C)C)N(C)C(=O)C[C@@H](C(=O)N(C)C)N(C)C(=O)[C@H]([C@@H](C)CC)N(C)C(=O)C2(CCCC2)NC(=O)[C@@H]2CCCN2C(=O)[C@H](CCc2ccc(C(F)(F)F)c(Cl)c2)NC(=O)CN(C)C(=O)[C@H](CC2CCCCC2)N(C)C(=O)CN(C)C(=O)CN(C)C1=O [Compound 1865] ([NMeL]I[Sar][Sar][NMeCha][Sar][hPhe(3-Cl-4-CF3)]P[Ac5c][NMeI][NMeD]-NMe2; lactam N-11)	9.37
CC[C@H](C)[C@@H]1NC(=O)[C@H](CC(C)C)N(C)C(=O)C[C@@H](C(=O)N(C)C)N(C)C(=O)[C@H]([C@@H](C)CC)N(C)C(=O)C2(CCCC2)NC(=O)[C@H](Cc2cccc(Br)c2)N(C)C(=O)[C@H](CCc2ccc(C(F)(F)F)c(Cl)c2)NC(=O)CN(C)C(=O)[C@H](Cc2ccc(C)cc2)N(C)C(=O)[C@@H]2CCN2C(=O)[C@H](C)N(C)C1=O [Compound 1873] ([NMeL]I[NMeA][Aze][NMePhe(4-Me)][Sar][hPhe(3-Cl-4-CF3)][NMePhe(3-Br)][Ac5c][NMeI][NMeD]-NMe2; lactam N-11)	7.48
CC[C@H](C)[C@@H]1NC(=O)[C@H](CC(C)C)N(C)C(=O)C[C@@H](C(=O)N2CCOCC2)N(C)C(=O)[C@H](C2CCCCC2)N(C)C(=O)C2(CCC2)NC(=O)[C@@H]2CCCN2C(=O)[C@H](CCc2ccc(C(F)(F)F)c(Cl)c2)NC(=O)CN(C)C(=O)[C@H](CC2CCCCC2)N(C)C(=O)CN(C)C(=O)CN(C)C1=O [Compound 1875] ([NMeL]I[Sar][Sar][NMeCha][Sar][hPhe(3-Cl-4-CF3)]P[Ac4c][NMeChg][NMeD]-Morpholide; lactam N-11)	9.38
CC[C@H](C)[C@@H]1NC(=O)[C@H](CC(C)C)N(C)C(=O)C[C@@H](C(=O)N2CCCCC2)N(C)C(=O)[C@H]([C@@H](C)CC)N(C)C(=O)C2(CCCC2)NC(=O)[C@H](Cc2ccc(F)cc2)N(C)C(=O)[C@H](CCc2ccc(C(F)(F)F)c(Cl)c2)NC(=O)CN(C)C(=O)[C@H](Cc2ccc(C)cc2)N(C)C(=O)[C@@H]2CCN2C(=O)[C@H](C)N(C)C1=O [Compound 1876] ([NMeL]I[NMeA][Aze][NMePhe(4-Me)][Sar][hPhe(3-Cl-4-CF3)][NMePhe(4-F)][Ac5c][NMeI][NMeD]-Piperidide; lactam N-11)	7.01
CC[C@H](C)[C@@H]1NC(=O)[C@H](C)N(C)C(=O)C[C@@H](C(=O)N(C)C)N(C)C(=O)[C@H]([C@@H](C)CC)N(C)C(=O)C2(CCCC2)NC(=O)[C@H](Cc2ccc(F)c(F)c2)N(C)C(=O)[C@H](CCc2ccc(C(F)(F)F)c(Cl)c2)NC(=O)CN(C)C(=O)[C@H](Cc2ccc(C)cc2)N(C)C(=O)[C@@H]2CCN2C(=O)[C@H](C)N(C)C1=O [Compound 1878] ([NMeA]I[NMeA][Aze][NMePhe(4-Me)][Sar][hPhe(3-Cl-4-CF3)][NMePhe(3,4-F2)][Ac5c][NMeI][NMeD]-NMe2; lactam N-11)	8.06
CC[C@H](C)[C@@H]1NC(=O)[C@H](CC(C)C)N(C)C(=O)C[C@@H](C(=O)N(C)C)N(C)C(=O)[C@H](C2CCCC2)N(C)C(=O)C2(CCCC2)NC(=O)[C@H](Cc2ccccc2C)N(C)C(=O)[C@H](CCc2ccc(C(F)(F)F)c(Cl)c2)NC(=O)CN(C)C(=O)[C@H](CC2CCCCC2)N(C)C(=O)[C@@H]2CCN2C(=O)[C@H](C)N(C)C1=O [Compound 1880] ([NMeL]I[NMeA][Aze][NMeCha][Sar][hPhe(3-Cl-4-CF3)][NMePhe(2-Me)][Ac5c][NMeGly(cPent)][NMeD]-NMe2; lactam N-11)	7.89
CC[C@H](C)[C@@H]1NC(=O)[C@H](CC(C)C)N(C)C(=O)C[C@@H](C(=O)N(C)C)N(C)C(=O)[C@H]([C@@H](C)CC)N(C)C(=O)C2(CCCC2)NC(=O)[C@H](Cc2ccc(F)cc2)N(C)C(=O)[C@H](CCc2cc(F)c(C(F)(F)F)c(F)c2)NC(=O)CN(C)C(=O)[C@H](Cc2ccc(C(F)(F)F)cc2)N(C)C(=O)[C@@H]2CCN2C(=O)[C@H](C)N(C)C1=O [Compound 1882] ([NMeL]I[NMeA][Aze][NMePhe(4-CF3)][Sar][hPhe(3,5-F2-4-CF3)][NMePhe(4-F)][Ac5c][NMeI][NMeD]-NMe2; lactam N-11)	8.01
CC[C@H](C)[C@@H]1NC(=O)[C@H](C)N(C)C(=O)C[C@@H](C(=O)N2CCCCC2)N(C)C(=O)[C@H]([C@@H](C)CC)N(C)C(=O)C2(CCCC2)NC(=O)[C@H](Cc2ccc(F)cc2)N(C)C(=O)[C@H](CCc2ccc(C(F)(F)F)c(Cl)c2)NC(=O)CN(C)C(=O)[C@H](Cc2ccc(C)cc2)N(C)C(=O)[C@@H]2CCN2C(=O)[C@H](C)N(C)C1=O [Compound 1885] ([NMeA]I[NMeA][Aze][NMePhe(4-Me)][Sar][hPhe(3-Cl-4-CF3)][NMePhe(4-F)][Ac5c][NMeI][NMeD]-Piperidide; lactam N-11)	7.49
CC[C@H](C)[C@@H]1NC(=O)[C@H](CC(C)C)N(C)C(=O)C[C@@H](C(=O)N(C)C)N(C)C(=O)[C@H]([C@@H](C)CC)N(C)C(=O)C2(CCCC2)NC(=O)[C@H](CCc2cccnc2)N(C)C(=O)[C@H](CCc2ccc(C(F)(F)F)c(Cl)c2)NC(=O)CN(C)C(=O)[C@H](Cc2ccc(C)cc2)N(C)C(=O)[C@@H]2CCN2C(=O)[C@H](C)N(C)C1=O [Compound 1886] ([NMeL]I[NMeA][Aze][NMePhe(4-Me)][Sar][hPhe(3-Cl-4-CF3)][X11][Ac5c][NMeI][NMeD]-NMe2; lactam N-11)	9.03
CC[C@H](C)[C@@H]1NC(=O)[C@H](C)N(C)C(=O)C[C@@H](C(=O)N2CCCCC2)N(C)C(=O)[C@H]([C@@H](C)CC)N(C)C(=O)C2(CCCC2)NC(=O)[C@@H](Cc2ccccc2)N(C)C(=O)[C@H](CCc2cc(F)c(C(F)(F)F)c(F)c2)NC(=O)CN(C)C(=O)[C@H](Cc2ccc(C)cc2)N(C)C(=O)[C@@H]2CCN2C(=O)[C@H](C)N(C)C1=O [Compound 1887] ([NMeA]I[NMeA][Aze][NMePhe(4-Me)][Sar][hPhe(3,5-F2-4-CF3)][dNMeF][Ac5c][NMeI][NMeD]-Piperidide; lactam N-11)	6.74
